# Measurements from patent US20100203110A1, “Therapeutics for Cancer Using 3-Bromopyruvate and Other Selective Inhibitors of ATP Production” (The Johns Hopkins University, priority 2006, published 2010).
# Legend:
# Vx-2 = test: ATP levels after treatment, Vx-2; type: cell-based, rabbit; details: 0.1, 0.2, 0.3 mM for 1 and 3 hours
# Method: ATP levels were measured in various cell lines, e.g., HepG2, Sk-Hep1, and Vx-2 after 3-bromopyruvate treatment. In each case, cells were treated with increasing concentration of 3-bromopyruvate (0.1 mM, 0.2 mM, and 0.3 mM) for 1 and 3 hours before measuring ATP levels in the cell. FIGS. 5 (A-C) show the ATP depletion observed following 3-bromopyruvate treatment in HepG2, Sk-Hep1, and Vx-2 cell lines, respectively.
# THLE-2 [1] = test: Caspase-3 activity, THLE-2; type: cell-based; details: 1 mM for 3 hour
# Method: (§1) Caspase-3 activity and reduced cell viability was also measured in cell lines (HepG2, THLE-2, and VX2 cell lines) following 3-bromopyruvate treatment (1 mM for 3 hour) (FIG. 6A). Caspase-3 activity increased in each cell line following treatment and cell viability decreased following treatment. An increase in caspase-3 activity indicated the mechanism of cell death is apoptotic. FIGS. 6 B and C show cell viability is reduced in each cell line with increasing 3-bromopyruvate concentration after 1 and 3 hours of treatment.
# THLE-2 [2] = test: Cell viability, THLE-2; type: cell-based; details: 1 mM for 3 hour
# Method: as §1
# VX2 = test: Cell viability, VX2; type: cell-based, rabbit; details: 1 mM for 3 hour
# Method: as §1
# [3] = Acute toxicity study, single IV dose in rabbits; type: in vivo, rabbit
# Method: In addition, an acute toxicity study was performed to determine the effects of 3-bromopyruvate administered IV. Based on the data acquired in rats, rabbits (2 animals per group followed for 1 week) were given 25 ml of 15, 20, and 25 mM 3-bromopyruvate as a single IV dose (i.e., using dose identified for rats).
# VX2 rabbit liver tumors = test: Intraarterial dose and infusion modality optimisation in VX2 liver cancer; type: in vivo
# Method: In a therapeutic dose study, 25 ml of 2.5 and 5 mM 3-BrPA were injected as a single intraarterial bolus over two minutes. Although these doses (2.5 and 5 mM) were 0.5 and 1 log higher than the 0.5 mM dose previously investigated, these doses were well within the IV therapeutic dose established in rats and rabbits.
# Since patients with HCC also suffer from underlying liver disease such as cirrhosis and hepatitis, an important translational consideration for therapy is the absolute necessity to protect and preserve healthy liver parenchyma. To lessen the degree of liver toxicity, different temporal modalities of intraarterial injection were tested. One possibility was that such a large volume, delivered within the short time of 2 minutes may have added physical and chemical toxic effects on the liver. Thus, a 1-hour continuous infusion and a serial infusion of 2 boluses administered an hour apart were compared against the original single bolus dose. The volume of 25 mL and the concentration of 2.5 mM 3-bromopyruvate were kept constant. […] In each of these experiments, rabbits were sacrificed 48 hours after treatment and representative sections obtained of tumor and normal tissues (7 slides/sample). The samples were subjected to histopathological analysis to determine percentage tumor cell death and damage to the surrounding normal liver tissue. This was then confirmed with the TUNEL assay (FIG. 7) and Ki-67 immunohistochemistry. […] The prolonged slow infusion eliminated most, if not all, of the unwanted damage to the normal liver enabling the use of a much higher dose of 3-bromopyruvate to ensure complete destruction of the tumor.
# Having determined that prolonged intraarterial infusion of 3-bromopyruvate was the optimal method of administration, a dose-response analysis was conducted. In part, this dose-response analysis was prompted by the persistent toxicity to healthy liver encountered at 2.5 mM. The objective was to optimize the 1-hour infusion in order to achieve complete tumor eradication without any toxicity to the normal liver parenchyma. Rabbits were intraarterially infused over 1-hour with doses ranging between 0.5 and 2.5 mM in 0.25 mM increments. The rabbits were fasted 24 hours prior to treatment and euthanized 48 hours after treatment. […] This total destruction was identified by histopathology (H&E) and confirmed by the TUNEL assay (FIG. 7). […] One possible explanation for this finding may be that 3-bromopyruvate at higher doses may have other cellular and chemical functions that are much more toxic to the normal liver parenchyma therein impeding the delivery of 3-bromopyruvate exclusively to the tumor. Thus, the healthy liver's ability to metabolize 3-bromopyruvate was optimal at the concentration of 1.75 mM.
# To further explore use of the continuous infusion method of delivery, the effect of a 2-hour continuous infusion of 50 mL 1.75 mM 3-BrPA was tested.
# [4] = 25 ml 5 mM, single IA bolus over two minutes
smiles,measurement,setting,value
O=C(O)C(=O)CBr [3-bromopyruvate],ATP levels,Vx-2,ATP depletion
same,Caspase-3 activity,THLE-2 [1],increased
same,cell viability,THLE-2 [2],decreased
same,cell viability,VX2,decreased
same,organ toxicity,[3]; 20 mM single IV dose,no evidence of any organ toxicity
same,"therapeutic dose, intravenous","[3]; 25 ml single IV dose, 1 week",20 mM
same,"therapeutic dose, intravenous",[3]; single IV dose,16.8 mg/kg
same,major organ toxicity,VX2 rabbit liver tumors; 1-hour intraarterial infusion of 25 mL of 1.75 mM,without any evidence of major organ toxicity
same,tumor kill and liver toxicity versus 1-hour infusion,VX2 rabbit liver tumors; 2-hour continuous infusion of 50 mL 1.75 mM,no significant difference
same,damage to the normal liver,"VX2 rabbit liver tumors; 25 mL 1.75 mM, 1-hour IA infusion",without any damage
same,tumor cell destruction,"VX2 rabbit liver tumors; 25 mL 1.75 mM, 1-hour IA infusion, 48 hours, H&E and TUNEL",100%
same,liver toxicity versus single bolus and 2 serial boluses,"VX2 rabbit liver tumors; 25 mL 2.5 mM, 1-hour continuous IA infusion, 48 hours",considerably less
same,surrounding healthy liver,"VX2 rabbit liver tumors; 25 ml 2.5 mM, single IA bolus",large areas of necrosis and fatty changes
same,survival after treatment,"VX2 rabbit liver tumors; 25 ml 2.5 mM, single IA bolus",barely able to survive for more than 48 hours
same,tumor destruction,"VX2 rabbit liver tumors; 25 ml 2.5 mM, single IA bolus over two minutes",complete tumor destruction
same,mortality,"VX2 rabbit liver tumors; 25 ml 5 mM, single IA bolus",death of all the rabbits
same,"other major organs, histopathology at necropsy","VX2 rabbit liver tumors; 25 ml 5 mM, single IA bolus",completely uneffected
same,surrounding healthy liver,VX2 rabbit liver tumors; [4],widespread necrosis
same,tumor destruction,VX2 rabbit liver tumors; [4],completely destroyed the tumor
same,toxicity to the healthy liver tissue,"VX2 rabbit liver tumors; doses higher than 1.75 mM, 1-hour IA infusion",increased toxicity
